# Source: PubChem BioAssay (NCI)
#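 Tested at 5 concentrations; 48 h exposure; 96-well plates; endpoints linearly interpolated, else capped at highest concentration. TGI: concentration producing complete growth inhibition.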
# How the values were obtained:
# Assay in all cases: NCI anticancer screen, dose series, 48 h
# [1] = tested on: UO-31 renal
# [2] = tested on: COLO 205 colon
# [3] = tested on: EKVX NSCLC
# [4] = tested on: MOLT-4 leukemia
# [5] = tested on: KM12 colon
# [6] = tested on: 786-0 renal
# [7] = tested on: SK-MEL-2 melanoma
# [8] = tested on: SNB-75 CNS
# [9] = tested on: HCT-116 colon
# [10] = tested on: MDA-MB-231 breast
# [11] = tested on: M14 melanoma
# [12] = tested on: CAKI-1 renal
# [13] = tested on: SW-620 colon
# [14] = tested on: OVCAR-8 ovarian
# [15] = tested on: HOP-62 NSCLC
# [16] = tested on: OVCAR-5 ovarian
# [17] = tested on: SK-MEL-28 melanoma
# [18] = tested on: HOP-92 NSCLC
# [19] = tested on: OVCAR-3 ovarian
# [20] = tested on: TK-10 renal
# [21] = tested on: A549 NSCLC
# [22] = tested on: SK-MEL-5 melanoma
# [23] = tested on: SF-539 CNS
# [24] = tested on: PC-3 prostate
# [25] = tested on: IGROV1 ovarian
# [26] = tested on: HCC-2998 colon
# [27] = tested on: MCF7 breast
# [28] = tested on: HCT-15 colon
# [29] = tested on: MDA-N
# [30] = tested on: NCI-H460 lung
# [31] = tested on: OVCAR-4 ovarian
# [32] = tested on: LOX IMVI melanoma
# [33] = tested on: HT29 colon
# [34] = tested on: SNB-19 CNS
# [35] = tested on: SF-295 CNS
# [36] = tested on: UACC-257 melanoma
# [37] = tested on: DU-145 prostate
# [38] = tested on: NCI/ADR-RES ovarian
# [39] = tested on: SN12C renal
# [40] = tested on: T-47D breast
# [41] = tested on: NCI-H23 lung
# [42] = tested on: U251 CNS
# [43] = tested on: NCI-H226 lung
# [44] = tested on: SK-OV-3 ovarian
# [45] = tested on: HL-60(TB) leukemia
smiles,measurement,setting,value
CC(C)Oc1c(O)c2c3c(oc(=O)n3C=CC2c2ccccc2)c1OC(C)C (stereo not given),TGI,[1],37.2 µM
same,TGI,[2],60.1 µM
same,TGI,[3],74 µM
same,TGI,[4],> 100 µM
same,TGI,[5],89.6 µM
same,TGI,[6],> 100 µM
same,TGI,[7],40.1 µM
same,TGI,[8],53.2 µM
same,TGI,[9],> 100 µM
same,TGI,[10],> 100 µM
same,TGI,[11],41.4 µM
same,TGI,[12],67.7 µM
same,TGI,[13],82.8 µM
same,TGI,[14],> 100 µM
same,TGI,[15],> 100 µM
same,TGI,[16],> 100 µM
same,TGI,[17],54.5 µM
same,TGI,[18],> 100 µM
same,TGI,[19],80.5 µM
same,TGI,[20],68.2 µM
same,TGI,[21],92.1 µM
same,TGI,[22],> 100 µM
same,TGI,[23],43.1 µM
same,TGI,[24],57.1 µM
same,TGI,[25],83.1 µM
same,TGI,[26],35.3 µM
same,TGI,[27],> 100 µM
same,TGI,[28],33.7 µM
same,TGI,[29],> 100 µM
same,TGI,[30],35.1 µM
same,TGI,[31],> 100 µM
same,TGI,[32],> 100 µM
same,TGI,[33],77.4 µM
same,TGI,[34],> 100 µM
same,TGI,[35],49.1 µM
same,TGI,[36],> 100 µM
same,TGI,[37],> 100 µM
same,TGI,[38],> 100 µM
same,TGI,[39],> 100 µM
same,TGI,[40],> 100 µM
same,TGI,[41],52.2 µM
same,TGI,[42],45.2 µM
same,TGI,[43],> 100 µM
same,TGI,[44],> 100 µM
same,TGI,[45],91.4 µM
